In one assay the test system is NF-κβ. Description: Induction of NF-κβ in THP1 dual cells (SEAP reporter). Type of assay: cell-based. The settings on record: 20 h incubation, SEAP levels at 620-655 nm. The method, then: (§1) Example 6. In Vitro Induction of IRF and NF-κβ in THP1 Cells Table 2
(§2) THP1 dual cells grown in complete media were treated with various concentrations of a compound of the present disclosure or DMSO control. Dual cells carry both secreted embryonic alkaline phosphatase (SEAP) reporter gene under the control of an IFN-β minimal promoter fused to five copies of the NF-kB consensus transcriptional response element to measure NF-kB activity and Lucia reporter gene under the control of an ISG54 minimal promoter to measure IRF activity. After 20 h incubation, IRF activity was assessed using QUANTI-luc to measure levels of Lucia and NF-kB activity was determined by measure SEAP levels at 620-655 nm. % induction was calculated from fold change in luminescence/absorbance compared to DMSO treated sample. […] EC50 values were generated by curve fit in Xlfit.
(§3) Cells grown in complete media were treated with various concentrations of a compound of the disclosure or DMSO control. Dual cells carry both secreted embryonic alkaline phosphatase (SEAP) reporter gene under the control of an IFN-β minimal promoter fused to five copies of the NF-kB consensus transcriptional response element to measure NF-kB activity and Lucia reporter gene under the control of an ISG54 minimal promoter to measure IRF activity. After 20 h incubation, IRF activity was assessed using QUANTI-luc to measure levels of Lucia and NF-kB activity was determined by measure SEAP levels at 620-655 nm. % induction was calculated from fold change in luminescence/absorbance compared to DMSO treated sample. EC50 values are generated by curve fit in Xlfit.

For a further assay, the system named is IRF. Description: Induction of IRF in THP1 dual cells (ISG54 promoter Lucia reporter). The assay is classed as cell-based. The settings on record: 20 h incubation, Lucia reporter (QUANTI-luc). The method, then:
as §1, §2, §3

Consider `Nc1ncnc2c1ncn2[C@@H]1O[C@@H]2COP(=O)(SCc3ccc(OC(=O)c4ccc(OCCCCCCCCCCO)cc4)cc3)O[C@H]3[C@@H](F)[C@H](n4ccc(=O)[nH]c4=O)O[C@@H]3COP(=O)(O)O[C@H]2[C@H]1F` (some centres unmarked) [Compound 2], for which the EC50 (usually the concentration that produces a half-maximal response) was 500 to 1000 nM in the assay on NF-κβ and less than 50 nM in the assay with IRF.
On the same counts, the results for `C=CCCC(=O)NCCCCCCCCCCCCOc1ccc(C(=O)Oc2ccc(CSP3(=O)OC[C@H]4O[C@@H](n5cnc6c(N)ncnc65)[C@H](F)[C@@H]4OP(=O)(O)OC[C@H]4O[C@@H](n5ccc(=O)[nH]c5=O)[C@H](F)[C@@H]4O3)cc2)cc1` (some centres unmarked) [Compound 8] are more than 2000 nM and 1000 to 2000 nM.
On the same counts, the results for `NCCCCCCCCCCOc1ccc(C(=O)Oc2ccc(CSP3(=O)OC[C@H]4O[C@@H](n5cnc6c(N)ncnc65)[C@H](F)[C@@H]4OP(=O)(O)OC[C@H]4O[C@@H](n5ccc(=O)[nH]c5=O)[C@H](F)[C@@H]4O3)cc2)cc1` (some centres unmarked) [Compound 1] are 500 to 1000 nM and less than 50 nM.
For `NCCCOCCOCCOCCOc1ccc(C(=O)Oc2ccc(CSP3(=O)OC[C@H]4O[C@@H](n5cnc6c(N)ncnc65)[C@H](F)[C@@H]4OP(=O)(O)OC[C@H]4O[C@@H](n5ccc(=O)[nH]c5=O)[C@H](F)[C@@H]4O3)cc2)cc1` (some centres unmarked) [Compound 7], the figures for the EC50 with NF-κβ and with IRF were 1000 to 2000 nM and 50 to 500 nM, respectively.

The values above are taken from US12187761B2, “Compounds, compositions, and methods for the treatment of disease” (F-star Therapeutics, Inc., priority 2017, dated 2025).
